In one data set the test system is hairless mice. Briefly: Erythematous response after topical application of nicotinic acid esters to hairless mice. The class given is in vivo. The conditions noted are these: for Erythematous Response: topical, 0.5 to 2.0% (wt/wt) in 200 mg lotion daily for one week, hairless mice; for cutaneous vasodilation: topical niacin esters. On the procedure:
Female hairless mice (HRS-J. 6-8 weeks old were used.) These were housed in solid bottom cages provided with sterile feed and water […], with a 14:10 light-dark cycle. The nicotinic acid esters of Example 1 were applied with a gloved finger daily to the backs of hairless mice in 200 mg of Vanicream Lite™ skin care lotion (Pharmaceutical Specialties, Inc., containing purified water, white petrolatum, ceteareth alcohol and ceteareth-20, propylene glycol, sorbitol solution, simethicone, glyceryl monostearate, polyethylene glycol monostearate, sorbic acid and BHT) at concentrations in the range of 0.5 to 2.0% (wt/wt) for one week. Control mice received 200 mg of the lotion alone. […] Dorsal and ventral skin samples were immediately frozen in liquid nitrogen and stored at −80° C.

In data set [1] the test system is apoB100/CETP double transgenic mice. Description: Plasma lipid profiles of apoB100/CETP double transgenic mice, transdermal lauryl niacin ester vs oral niacin, 90 days. It counts as in vivo. On the procedure: Niacin intake was estimated from the water consumed.
For topical administration, niacin lauryl esters was applied daily to the shaved backs of mice in 200 mg of lotion at concentrations of 1, 2, 5 and 10% (wt/wt) for 13 weeks. Per 25-g mouse, the daily topical doses would be in the range of 34 to 340 mg/kg as niacin. Control mice received equal amounts of the vehicle lotion alone. A lipid analysis was performed as described in Example 4.
Improvement of lipid profiles of apoB100/CETP transgenic mice treated with niacin prodrug. The effect of transdermal delivery of lauryl niacin ester on plasma lipid profiles in a comparison with oral niacin in the apoB100/CETP double transgenic mice for 90 days. A total of six groups of six animals were used in this study. For topical administration, lauryl niacin ester was applied daily to the shaved backs of mice. For oral administration, niacin (sodium salt) was dissolved in the drinking water.

Another data set deals with mice. The conditions noted are these: oral niacin; study not named at the place.
[2] abbreviates: topical, daily to shaved backs, one-fourth the dose of the oral treatment.
Where [3] appears, read: oral, sodium salt in drinking water.

Regarding `CCCCOC(=O)c1cccnc1` [4 carbons], the “Erythematous Response” value in the data set on hairless mice is “Yes”.
Turning to `CCCCCCCCCCCCCCCCCCOC(=O)c1cccnc1` [18 carbons], the “Erythematous Response” value with hairless mice is listed as “No”.
Regarding `CCCCCCCCCCCCCCOC(=O)c1cccnc1` [14 carbons, myristyl nicotinate], in the data set with hairless mice, the cutaneous vasodilation result is recorded as “no cutaneous vasodilation” and the “Erythematous Response” value is on record as “No”.
In the case of `CCCCCCOC(=O)c1cccnc1` [6 carbons], in the data set with hairless mice, the “Erythematous Response” value is “Yes”.
The same measure, in the same setting: in the case of `CCCCCCCCCCCCCOC(=O)c1cccnc1` [13 carbons] it was “No”; in that of `COC(=O)c1cccnc1` [1 carbon], “Yes”.
For the compound `CCCCCCCCCCCCOC(=O)c1cccnc1` [12 carbons, lauryl nicotinate], in the data set with hairless mice, the cutaneous vasodilation result is “no cutaneous vasodilation” and the “Erythematous Response” value was “No”. Also, in data set [1] (setting [2]), the “HDL-C elevated by” value amounted to 8%, the “LDL-C fraction lowered by” value is given as 38%, the “total cholesterol lowered by” value is recorded as 15% and the “triglycerides lowered by” value is reported as 33%.
Consider `CCCCCCCCCCOC(=O)c1cccnc1` [10 carbons], for which the “Erythematous Response” value in the data set on hairless mice is “Slight”; in the data set on hairless mice (listed as C10 ester), “reduced erythematous response”.
With `CCCCCCCCCCCCCCCOC(=O)c1cccnc1` [15 carbons], the “Erythematous Response” value in the data set on hairless mice is “No”.
For `CCOC(=O)c1cccnc1` [2 carbons], the “Erythematous Response” value with hairless mice is given as “Yes”.
Regarding `CCCCCCCCCCCCCCCCOC(=O)c1cccnc1` [16 carbons], the “Erythematous Response” value with hairless mice is “No”.
Still for that read-out and setting: in the case of `CCCCCCCCOC(=O)c1cccnc1` [8 carbons] it was “Yes”.
With `O=C(O)c1cccnc1` [niacin, nicotinic acid], in data set [1] (setting [3]), the “HDL-C fraction lowered by” value is recorded as 13%, the “LDL fraction lowered by” value was found to be 45%, the “total cholesterol lowered by” value is 29% and the “triglycerides lowered by” value is recorded as 37%. Moreover, the “total cholesterol lowered by” value with mice was 12%.
